From article PMC4646457 (PLoS ONE, 2015)

Key:
[1] = tested on: HER2 phosphorylation; design: method as in printed; conditions: abstract, ref not given, cited from earlier work
[2] = design: method as in EGF10027 protocol, CIB RM2000/00481/06; conditions: oral, male beagle dogs; ref EGF10027 protocol, CIB RM2000/00481/06; cited from earlier work
[3] = tested on: HER3; experiment: Quantitative IHC of phosphorylated HER3 in patient tumor (EGF10027); format: in vivo, human; conditions: for p-HER3 post-treatment OD: plasma […]
[4] = design: method as in study EGF10002; conditions: ref study EGF10002, cited from earlier work
[5] = molecular target: ErbB1 tyrosine kinase; conditions: read-out: IC50, ErbB1 tyrosine kinase; in vitro kinase assay; ref EGF10027 protocol, CIB RM2000/00481/06; cited from earlier work

CS(=O)(=O)CCNCc1ccc(-c2ccc3ncnc(Nc4ccc(OCc5cccc(F)c5)c(Cl)c4)c3c2)o1 [lapatinib]
in vitro IC90 for inhibition of HER2 phosphorylation [1]: ~0.5 µg/mL
IC90 ([1]; read-out: in vitro IC90 for inhibition of HER2 phosphorylation): ~900 nM
overall recovery of radioactivity (nearly quantitative in feces) [2]: 89.9%
p-HER3 post-treatment OD, mean ([3]; mean of listed subjects): 10.40 OD
HER3 phosphorylation in tumor ([3]; one patient with ABCB1 SNP C3435T, plasma 1 μM, tumor 9 μM): complete inhibition
p-HER3 post-treatment OD ([3]; subject 5, tumor 25.60 µM): 16 OD
p-HER3 post-treatment OD ([3]; subject 124, tumor 56.02 µM): 7 OD
p-HER3 post-treatment OD ([3]; subject 801, tumor 1.98 µM): 14 OD
p-HER3 post-treatment OD ([3]; subject 803, tumor 2.08 µM): 5 OD
p-HER3 post-treatment OD ([3]; subject 804, tumor 7.90 µM): 11 OD
p-HER3 post-treatment OD ([3]; subject 1401, tumor 1.02 µM): 3 OD
p-HER3 post-treatment OD ([3]; subject 1405, tumor 12.76 µM): 18 OD
accumulation with once daily dosing ([4]; 100 and 175 mg doses): ~50%
half-life ([4]; Day 1): 7 h
IC50 [5]: 10 nM
